Laboratory results taken from US20180344680A1, “COMPOSITIONS AND METHODS FOR TREATMENT, AMELIORATION, AND PREVENTION OF DIABETES-RELATED SKIN ULCERS” (THE ARIZONA BOARD OF REGENTS ON BEHALF OF THE UNIVERSITY OF …, priority 2015, published 2018).

Key:
TGF-β1 = TGF-β1 expression in wound skin tissues of STZ mice (immunoblot, IHC); assay type: in vivo, mouse; conditions: immunoblot and IHC, day 14
Text: Diabetes mouse model and treatments. Nrf2^+/+ and Nrf2^-/- C57BL/6 mice were described previously (see, e.g., Jiang T, et al., Diabetes 59:850-860, 2010) and were housed and handled in accordance with the University of Arizona Institutional Animal Care policies. The STZ-induced diabetic model was previously described (see, e.g., Zheng H, et al., Diabetes 60:3055-3066, 2011) and only 8 week old male mice were included in this study. Briefly, three weeks after STZ injections, fasting glucose levels (FGL, 4 h fast) were measured using the AlphaTRAK system (Abbott Laboratory, North Chicago, Ill.) and mice with a FGL higher than or equal to 250 mg/dL were considered diabetic and included in the study (see, e.g., FIG. 2A and FIG. 3A for a detailed timeline). […] Gross wound closure was quantified by ImageJ software, and wound healing was expressed as the percentage of the original wound area that had healed. […] Morphology was assessed by hematoxylin and eosin (H&E) staining (Vector laboratory, Burlingame, Calif.). […] Protein concentration was measured using Quant-iT Protein Assay (Invitrogen) and 150 μg of protein were resolved by SDS-PAGE and immunoblotting analyses with the indicated antibodies.

MMP9 = MMP9 immunoblot and gelatin zymography in HaCaT cells under high glucose; assay type: cell-based, human; conditions: HG HaCaT cells, 5 μmol/L SF or 20 μmol/L CA
Experimental: Human immortalized keratinocytes HaCaT were obtained from the Arizona Cancer Center (see, e.g., Boukamp P, et al., J Cell Biol 106:761-771, 1988). Cells were grown in Dulbecco's modified Eagle's medium (DMEM) containing low glucose (LG, 5.5 mmol/L) and 10% fetal bovine serum (FBS) in an incubator at 37° C. with 5% CO2. For the experiments, the cells were starved in serum-free LG DMEM for 24 h, then either maintained in LG DMEM or switched to high glucose (HG, 25 mmol/L) DMEM for 2 days (see, e.g., Zheng H, et al., Diabetes 60:3055-3066, 2011; Lan C C, et al., Br J Dermatol 159:1103-1115, 2008). For the treatments, the cells were dosed with 5 μmol/L SF or 20 μmol/L CA.
siRNA transfections. […]
Cultured HaCaT cells were harvested in 1× sample buffer (50 mM Tris-HCl pH 6.8, 2% sodium dodecyl sulfate (SDS), 10% glycerol, 100 mM dithiothreitol (DTT), 0.1% bromophenol blue), boiled and sonicated. […] TGF-β1 was measured using the Quantikine human TGF-β1 immunoassay kit (R&D systems; Minneapolis, Minn.) according to the manufacturer's instructions. The absorbance at 450 nm was measured using a Synergy 2 microplate reader (BioTek, Winooski, Vt.) and the amount of TGF-β1 was calculated by standard curve. MMP9 activity was evaluated by gelatin zymography as described elsewhere (see, e.g., Toth M, et al., Methods Mol Biol 878:121-135, 2012; Zhu P, et al., Exp Dermatol 21:123-129, 2012). […]

Structure (SMILES) | TGF-β1 expression (TGF-β1) | expression and activity of MMP9 (MMP9)
O=CC=Cc1ccccc1 [CA, Cinnamaldehyde] | restored to levels comparable to that of Con mice | decreased
C[S@@+]([O-])CCCCN=C=S [SF, L-sulforaphane] | restored to levels comparable to that of Con mice | decreased
